Measured values from publication PMC6934184, “Selective DNA-PKcs inhibition extends the therapeutic index of localized radiotherapy and chemotherapy” (The Journal of Clinical Investigation, 2019).

Molecular target: T1, STK3 (MST2) (Homo sapiens, UniProt Q13188)
T1 construct: purchased Thermo Fisher Scientific (Life Technologies) SelectScreen
Test: SelectScreen Z'LYTE
Format: biochemical
Summary of the method: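 Percent values come from Thermo SelectScreen profiling of NU5455, combining activity and binding assays. CSF1R was run in Z'LYTE format at Km app ATP, and CAMK1 in Adapta format with ATP listed at 10.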

T1 sequence (Q13188 whole entry): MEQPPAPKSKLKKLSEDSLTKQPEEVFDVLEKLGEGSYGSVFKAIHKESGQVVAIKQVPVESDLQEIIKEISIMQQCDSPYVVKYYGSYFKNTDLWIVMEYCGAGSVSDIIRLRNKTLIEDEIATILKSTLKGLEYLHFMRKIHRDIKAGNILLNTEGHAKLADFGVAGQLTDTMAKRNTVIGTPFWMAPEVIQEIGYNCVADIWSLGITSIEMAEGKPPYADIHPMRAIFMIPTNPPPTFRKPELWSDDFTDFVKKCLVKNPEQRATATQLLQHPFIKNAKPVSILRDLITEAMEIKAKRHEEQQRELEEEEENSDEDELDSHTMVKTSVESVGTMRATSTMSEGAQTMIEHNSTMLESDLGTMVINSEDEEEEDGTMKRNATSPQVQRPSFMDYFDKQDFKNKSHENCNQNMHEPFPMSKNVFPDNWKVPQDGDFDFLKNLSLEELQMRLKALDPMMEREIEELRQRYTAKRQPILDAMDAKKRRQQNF

`CN(C(=O)CN1CCOCC1)c1ccc2sc3c(-c4cccc5c(=O)cc(N6CC7CCC(C6)O7)oc45)cccc3c2c1` [NU5455] was tested. Which inhibition at 1 µM did it give?
The inhibition at 1 µM was -10.3%.
